# Measured values reported in patent US5767261A, “Lepidopteran GABA gated chloride channel and nucleic acids encoding subunits thereof” (priority 1995, dated 1998).
# Columns and labels:
# [1] = tested on: Heliothis virescens cyclodiene resistant chloride channel; assay: Two-electrode voltage clamp recordings of Xenopus oocytes injected with pIVY12 mRNA; type: cell-based; settings: agonized by GABA
# Experimental: (§1) Messenger RNA was produced from the cDNA template of pIVY12 described in Example I by in vitro transcription with the Ambion mMESSAGE mMACHINE IN VITRO TRANSCRIPTION KIT™ (Ambion, Inc.) The mRNA was injected into oocytes by the following procedure.
# (§2) Frogs were anesthetized in a 2 gram/liter solution of 3-amino benzoic acid ethyl ester for thirty minutes, after which oocytes were surgically removed from the abdominal cavity. Follicles were digested by collagenase treatment under sterile conditions by standard methods. Oocytes were injected with 50 nl of mRNA by glass electrodes.
# (§3) Following a 24 to 48 hour incubation, two-electrode voltage clamp recordings were made. Recordings were made using a Dagan TEV200 voltage clamp interfaced with a MacLab4 data acquisition system running the MacLab Chart data acquisition/analysis software. Oocytes were positioned under a dissecting scope under constant perfusion with ND-96 standard saline using a Razel syringe perfusion pump, model A99-FY at 93.9 cc/hr. Glass electrodes (A-M Systems, Inc., 1.5 mm×0.86 mm) were filled with 3M KCl and resistance ([…]) was measured to be between 0.7 and 1.5 mega ohms. Both electrodes were inserted into the oocyte at opposite sides, the resting potential was recorded and the voltage clamp turned on. Oocytes were held at a resting potential between -70 and -50 mV. Control responses of GABA were obtained by stopping the perfusion of saline and perfusing with a known concentration of GABA in ND-96 with 0.1% DMSO. The average of several GABA applications was taken as the maximal chloride current for that particular GABA dose. The effect of 10 micromolar GABA on the lepidopteran GABA gated chloride channel expressed in Xenopus oocytes is depicted in FIG. 4. […] In particular, the Heliothis virescens cyclodiene resistant chloride channel is about ten times less sensitive to block by fipronil than the Drosophila Rdl chloride channel.
# [2] = target: T1, Heliothis GABA gated chloride channel (Heliothis virescens, UniProt O18468); assay: Whole cell patch clamp recordings of permanently transformed Drosophila SH1 cell lines (pIVY17); type: cell-based; settings: SH1 cells, induced by 10 μM cadmium chloride for 48 hours, FIG. 7
# T1 sequence (O18468 30-496): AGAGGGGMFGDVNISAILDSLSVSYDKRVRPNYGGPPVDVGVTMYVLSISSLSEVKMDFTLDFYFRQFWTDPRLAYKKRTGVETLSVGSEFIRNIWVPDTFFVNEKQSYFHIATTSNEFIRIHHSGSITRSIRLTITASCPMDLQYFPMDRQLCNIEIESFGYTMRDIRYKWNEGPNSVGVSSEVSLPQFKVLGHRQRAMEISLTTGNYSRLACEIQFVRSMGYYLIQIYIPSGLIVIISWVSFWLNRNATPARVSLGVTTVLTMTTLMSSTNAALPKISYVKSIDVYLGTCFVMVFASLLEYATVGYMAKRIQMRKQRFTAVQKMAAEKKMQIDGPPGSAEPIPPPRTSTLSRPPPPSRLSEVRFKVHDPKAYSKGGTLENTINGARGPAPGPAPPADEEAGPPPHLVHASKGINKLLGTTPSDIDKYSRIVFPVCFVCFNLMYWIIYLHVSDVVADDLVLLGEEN
# Text: To verify that expression of cDNA encoding the GABA gated chloride channel subunit results in production of a functional GABA gated chloride channel, hole cell voltage clamp recordings were made at thirty hours post infection. […] The results presented in this example indicate that expression of DNA encoding a lepidopteran GABA gated chloride channel subunit in Sf9 cells results in a functional GABA gated chloride channel.
# Drosophila cell line SH1 was transformed with plasmid pIVY17 using lipofectin obtained from GIBCO-BRL following the manufacturer's instructions. Selection of insect cell transformants was accomplished with hygromycin at a concentration of 200 μg/ml. The Heliothis GABA gated chloride channel expression was induced by 10 μM cadmium chloride added to the growth medium for 48 hours prior to electrophysiological readings. Whole cell voltage patch clamping recordings were performed on a number of cell lines as described in Example III.
# [3] = target: T2, Heliothis virescens cyclodiene resistant chloride channel (Heliothis virescens, UniProt O18468); assay: Two-electrode voltage clamp recordings of Xenopus oocytes injected with pIVY12 mRNA; type: cell-based; settings: for gross effect of known agonist / antagonist on the channel: similar assays
# T2 construct: in vitro transcribed pIVY12 mRNA injected into Xenopus oocytes, homomeric channel
# T2 sequence (O18468 30-496): T1 sequence (O18468 30-496)
# Experimental: as §1, §2, §3
# [4] = target: T3, Heliothis virescens cyclodiene resistant GABA gated chloride channel (Heliothis virescens, UniProt O18468); assay: Whole cell voltage clamp recordings of Sf9 cells infected with recombinant baculovirus Elise13; type: cell-based; settings: 1×10^-3 M GABA, thirty hours post infection, FIG. 3
# T3 sequence (O18468 30-496): T1 sequence (O18468 30-496)
# Text: A BamHI/XhoI DNA fragment from plasmid pIVY12 described in Example 1 containing the complete coding sequence of the Heliothis virescens cyclodiene resistant GABA gated chloride channel subunit was cloned into the baculovirus transfer vector pBacPac8 (Clontech). The resulting vector, pIVY13, contains cDNA encoding the Heliothis virescens cyclodiene resistant GABA gated chloride channel subunit under the control of the polyhedrin promoter. The 8.0 kb vector, PIVY13, consists of the Heliothis sequence of pIVY12 cloned into the BamHI/XhoI site of pBacPac8 and is depicted in FIG. 2. Spodoptera frugiperda 9 (Sf9) cells were cotransfected by pIVY13 and wild type Autographa californica nuclear polyhedrosis virus (AcMNPV) using the lipofectin procedure. In transfer vector pIVY13, flanking AcMNPV sequences allowed recombination with the viral DNA, thus resulting in the transfer of the expression cassette of the Heliothis cDNA and the polyhedrin promoter to the polyhedrin locus of the viral DNA. The recombinant virus thus generated was designated Elise13. Viral stocks of Elise13 were generated by standard procedures described by O'Reilly et al. (1992) Baculovirus Expression Vectors, A Laboratory Manual, W. H. Freeman and Company. Sf9 cells were infected with Elise13 at a multiplicity of infection of 5 plaque forming units (PFU) per cell by standard procedures. […]
# [5] = target: T4, Drosophila Rdl chloride channel (Drosophila melanogaster, UniProt P25123); settings: 10 micromoles of picrotoxinin; cited from earlier work
# T4 sequence (P25123 45-606): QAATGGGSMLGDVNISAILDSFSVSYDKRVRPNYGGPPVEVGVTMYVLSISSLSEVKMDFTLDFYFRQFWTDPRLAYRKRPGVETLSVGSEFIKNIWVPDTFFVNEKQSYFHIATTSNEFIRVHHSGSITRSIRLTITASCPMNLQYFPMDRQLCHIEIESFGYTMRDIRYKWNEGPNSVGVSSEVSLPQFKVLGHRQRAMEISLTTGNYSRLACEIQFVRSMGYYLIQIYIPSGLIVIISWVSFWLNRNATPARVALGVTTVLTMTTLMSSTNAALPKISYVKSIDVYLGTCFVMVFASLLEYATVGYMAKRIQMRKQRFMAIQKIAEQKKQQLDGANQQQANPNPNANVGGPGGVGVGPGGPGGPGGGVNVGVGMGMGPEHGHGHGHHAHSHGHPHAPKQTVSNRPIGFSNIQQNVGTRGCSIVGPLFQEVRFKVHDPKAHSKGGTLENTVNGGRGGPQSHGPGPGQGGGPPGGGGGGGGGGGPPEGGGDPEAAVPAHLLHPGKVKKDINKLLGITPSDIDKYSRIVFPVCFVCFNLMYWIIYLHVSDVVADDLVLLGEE
smiles,measurement,setting,value
N#Cc1nn(-c2c(Cl)cc(C(F)(F)F)cc2Cl)c(N)c1[S+]([O-])C(F)(F)F (stereo not drawn) [fipronil],reduction of sensitivity to block relative to Drosophila Rdl chloride channel,[1],about ten
"NCCCC(=O)O [GABA, gamma-amino butyric acid]",functional effect on the GABA gated chloride channel (flux of chloride ion),[2],exhibits the predicted gross functional effect
same,functional effect on the GABA gated chloride channel,"[3]; 10 micromolar GABA, FIG. 4",exhibits the predicted gross functional effect
same,functional effect on the GABA gated chloride channel (flux of chloride ion),[4],exhibits the gross functional effect on the GABA gated chloride channel
NCc1cc(=O)[nH]o1 [muscimol],gross effect of known agonist / antagonist on the channel,[3],exhibited the predicted gross effects
C=C(C)[C@@H]1[C@H]2OC(=O)[C@@H]1[C@]1(O)C[C@H]3O[C@]34C(=O)O[C@H]2[C@]14C [picrotoxinin],block of Drosophila Rdl,[5],nearly complete block
same,reduction of sensitivity to block relative to Drosophila Rdl chloride channel,[1],more than 100 times
same,block of the Heliothis channel,[3]; 10 micromoles of picrotoxinin,fifty
same,gross effect of known agonist / antagonist on the channel,[3],exhibited the predicted gross effects
